How the values were obtained:
[1] = biological target: T1, human recombinant adrenergic α2A receptor (Homo sapiens, UniProt P08913); experiment: Adrenergic α2A radioligand binding assay ([3H]MK-912); settings: 1 nM [3H]MK-912, read-out: Percent Inhibition of ligand binding, Adrenergic (1 μM) α2A
T1 construct: expressed in transfected cells; host or cells: insect Sf9 cells
T1 sequence (P08913 1-465): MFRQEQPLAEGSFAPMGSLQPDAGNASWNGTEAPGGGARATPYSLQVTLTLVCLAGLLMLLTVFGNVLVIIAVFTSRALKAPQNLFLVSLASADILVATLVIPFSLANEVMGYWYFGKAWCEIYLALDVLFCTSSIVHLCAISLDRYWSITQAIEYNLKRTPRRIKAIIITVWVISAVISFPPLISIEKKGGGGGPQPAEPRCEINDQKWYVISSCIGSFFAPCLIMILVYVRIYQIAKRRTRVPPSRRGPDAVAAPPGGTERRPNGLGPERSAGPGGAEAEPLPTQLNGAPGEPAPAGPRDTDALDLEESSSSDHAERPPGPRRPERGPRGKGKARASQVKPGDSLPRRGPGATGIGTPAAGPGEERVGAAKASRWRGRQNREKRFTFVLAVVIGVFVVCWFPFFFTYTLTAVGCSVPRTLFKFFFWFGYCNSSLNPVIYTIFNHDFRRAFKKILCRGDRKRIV
Experimental: To evaluate in radioligand binding assays the activity of compounds of the invention, human recombinant adrenergic α2A receptor expressed in insect Sf9 cells (Uhlen S et al. J. Pharmacol. Exp. Ther. 271:1558, 1994) in a modified Tris-HCl buffer (50 mM Tris-HCl, pH 7.4, 12.5 mM MgCl2, 2 mM EDTA) was used. Compounds of invention were incubated with 1 nM [^3H]MK-912 for 60 min at 25° C. MK912 is (2S-trans)-1,3,4,5′,6,6′,7,12b-octahydro-1′,3′-dimethyl-spiro[2H-benzofuro[2,3-a]quinolizine-2,4′(1′H)-pyrimidin]-2′(3′H)-one hydrochloride Non-specific binding was estimated in the presence of 10 μM WB-4101 (2-(2,6-dimethoxyphenoxyethyl) aminomethyl-1,4-benzodioxane hydrochloride). Receptor proteins were filtered and washed, the filters were then counted to determine [^3H]MK-912 specifically bound. Compounds were screened at 1 μM or lower, using 1% DMSO as vehicle. Biochemical assay results are presented as the percent inhibition of specific binding in Table 3.

[2] = biological target: T2, human recombinant adrenergic α2B receptor (Homo sapiens, UniProt P18089); experiment: Adrenergic α2B radioligand binding assay ([3H]Rauwolscine); settings: 2.5 nM [3H]Rauwolscine, read-out: Percent Inhibition of ligand binding, Adrenergic (1 μM) α2B
T2 construct: expressed in transfected cells; host or cells: Chinese hamster ovary (CHO-K1) cells
T2 sequence (P18089 1-450): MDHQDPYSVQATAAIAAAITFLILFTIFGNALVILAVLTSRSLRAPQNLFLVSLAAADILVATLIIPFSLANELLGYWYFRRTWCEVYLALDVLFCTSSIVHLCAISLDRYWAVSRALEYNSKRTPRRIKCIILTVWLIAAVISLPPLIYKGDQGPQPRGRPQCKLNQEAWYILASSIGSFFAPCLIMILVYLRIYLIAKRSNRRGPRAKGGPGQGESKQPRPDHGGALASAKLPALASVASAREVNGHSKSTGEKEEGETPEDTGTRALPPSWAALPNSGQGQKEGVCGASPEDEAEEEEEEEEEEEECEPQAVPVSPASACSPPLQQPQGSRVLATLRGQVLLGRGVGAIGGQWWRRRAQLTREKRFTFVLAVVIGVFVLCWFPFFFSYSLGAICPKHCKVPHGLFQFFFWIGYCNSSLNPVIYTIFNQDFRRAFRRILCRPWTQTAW
Experimental: To evaluate in radioligand binding assays the activity of compounds of the invention, human recombinant adrenergic α2B receptor expressed in Chinese hamster ovary (CHO-K1) cells (Uhlen S et al. Eur. J. Pharmacol. 343(1):93, 1998) in a modified Tris-HCl buffer (50 mM Tris-HCl, pH 7.4, 12.5 mM MgCl2, 1 mM EDTA, 0.2% BSA) was used. Compounds of the invention were incubated with 2.5 nM [^3H]Rauwolscine for 60 min at 25° C. Non-specific binding was estimated in the presence of 10 μM Prozosin. Receptor proteins were filtered and washed, the filters were then counted to determine [^3H]Rauwolscine specifically bound. Compounds were screened at 1 μM or lower, using 1% DMSO as vehicle. Biochemical assay results are presented as the percent inhibition of specific binding in Table 3.

[3] = biological target: human recombinant histamine H1 receptor (Homo sapiens, UniProt P35367); experiment: Histamine H1 radioligand binding assay ([3H]Pyrilamine); settings: percent inhibition of specific binding of […] [3H]Pyrilamine; compounds screened at 1 μM or lower
Chain of human recombinant histamine H1 receptor (P35367 whole entry): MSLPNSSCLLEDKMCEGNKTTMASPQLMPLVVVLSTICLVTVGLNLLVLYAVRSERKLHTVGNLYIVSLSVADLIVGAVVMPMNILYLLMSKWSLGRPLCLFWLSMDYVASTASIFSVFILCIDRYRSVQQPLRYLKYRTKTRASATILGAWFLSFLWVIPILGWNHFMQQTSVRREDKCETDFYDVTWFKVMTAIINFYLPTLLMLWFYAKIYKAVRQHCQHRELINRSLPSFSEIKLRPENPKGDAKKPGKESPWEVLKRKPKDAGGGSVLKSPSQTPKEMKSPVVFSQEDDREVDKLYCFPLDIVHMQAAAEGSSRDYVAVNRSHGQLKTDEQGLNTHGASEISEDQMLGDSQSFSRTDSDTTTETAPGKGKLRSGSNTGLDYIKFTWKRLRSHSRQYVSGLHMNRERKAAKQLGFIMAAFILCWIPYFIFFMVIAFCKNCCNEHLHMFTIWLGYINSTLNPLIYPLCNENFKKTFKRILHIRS
Experimental: To evaluate in radioligand binding assays the activity of compounds of the invention, human recombinant histamine H1 receptor expressed in Chinese hamster ovary (CHO) cells (De Backer, M. D. et al., Biochem. Biophys. Res. Comm. 197(3):1601, 1993) in a modified Tris-HCl buffer (50 mM Tris-HCl, pH 7.4, 2 mM MgCl2, 100 mM NaCl, 250 mM Sucrose) was used. Compounds of the invention were incubated with 1.2 nM [^3H]Pyrilamine for 180 min at 25° C. Non-specific binding was estimated in the presence of 1 μM pyrilamine. Receptor proteins were filtered and washed, the filters were then counted to determine [^3H]Pyrilamine specifically bound. Compounds were screened at 1 μM or lower, using 1% DMSO as vehicle. Biochemical assay results are presented as the percent inhibition of specific binding in Table 2.

[4] = biological target: T3, human recombinant serotonin (5-Hydroxytryptamine) 5-HT2A receptor (Homo sapiens, UniProt P28223); experiment: Serotonin 5-HT2A radioligand binding assay ([3H]Ketanserin); settings: 0.5 nM [3H]Ketanserin, read-out: Percent Inhibition of ligand binding, Serotonin (1 μM) 5-HT2A
T3 construct: expressed in transfected cells; host or cells: Chinese hamster ovary (CHO-K1) cells
T3 sequence (P28223 whole entry): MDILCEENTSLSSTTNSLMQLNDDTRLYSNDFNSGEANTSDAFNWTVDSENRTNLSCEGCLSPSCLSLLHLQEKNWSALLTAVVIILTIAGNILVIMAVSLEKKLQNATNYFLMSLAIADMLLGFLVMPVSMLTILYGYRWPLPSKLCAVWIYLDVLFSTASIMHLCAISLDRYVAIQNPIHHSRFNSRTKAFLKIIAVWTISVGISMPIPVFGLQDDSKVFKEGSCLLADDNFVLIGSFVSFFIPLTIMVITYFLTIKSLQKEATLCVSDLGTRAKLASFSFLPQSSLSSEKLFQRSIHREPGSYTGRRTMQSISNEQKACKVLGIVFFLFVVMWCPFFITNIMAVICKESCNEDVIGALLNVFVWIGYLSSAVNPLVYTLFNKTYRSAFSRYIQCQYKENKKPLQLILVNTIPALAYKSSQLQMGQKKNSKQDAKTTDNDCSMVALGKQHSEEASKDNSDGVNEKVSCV
Experimental: Compounds of the invention were incubated with 0.5 nM [^3H]Ketanserin for 60 min at 25° C. Non-specific binding was estimated in the presence of 1 μM Mianserin. Receptor proteins were filtered and washed, the filters were then counted to determine [^3H]Ketanserin specifically bound. Compounds were screened at 1 μM or lower, using 1% DMSO as vehicle. Biochemical assay results are presented as the percent inhibition of specific binding in Table 4.

| Structure (SMILES) | inhibition at 1 µM [1] | inhibition at 1 µM [2] | Binding Data (% Inhibition) Histamine Binding H1 [3] | inhibition at 1 µM [4] |
| --- | --- | --- | --- | --- |
| Cc1ccc2c(c1)c1c(n2CC(CC(=O)O)c2ccc(F)cc2)CCN(C)C1 (stereo not drawn) [Compound 7, 4-(2,8-dimethyl-3,4-dihydro-1H-pyrido[4,3-b]indol-5(2H)-yl)-3-(4-fluorophenyl)butanoic acid] | 9% | 12% | −1% | 9% |
| CN1CCc2c(c3cc(Cl)ccc3n2CC2(c3ccc(Cl)cc3)OCCO2)C1 [Compound 5, 8-chloro-5-((2-(4-chlorophenyl)-1,3-dioxolan-2-yl)methyl)-2-methyl-2,3,4,5-tetrahydro-1H-pyrido[4,3-b]indole] | 95% | 97% | 90% | 99% |
| CNC(=O)CC(Cn1c2c(c3cc(C)ccc31)CN(C)CC2)c1ccc(F)cc1 (stereo not drawn) [Compound 8, 4-(2,8-dimethyl-3,4-dihydro-1H-pyrido[4,3-b]indol-5(2H)-yl)-3-(4-fluorophenyl)-N-methylbutanamide] | 63% | 72% | 6% | 85% |
| Cc1ccc2c(c1)c1c(n2CC2(c3ccccc3)OCCO2)CCN(C)C1 [Compound 2, 2,8-dimethyl-5-((2-phenyl-1,3-dioxolan-2-yl)methyl)-2,3,4,5-tetrahydro-1H-pyrido[4,3-b]indole] | 91% | 103% | 71% | 93% |
| CN1CCc2c(c3cc(Cl)ccc3n2CC2(c3ccc(F)cc3)OCCO2)C1 [Compound 4, 8-chloro-5-((2-(4-fluorophenyl)-1,3-dioxolan-2-yl)methyl)-2-methyl-2,3,4,5-tetrahydro-1H-pyrido[4,3-b]indole] | 95% | 103% | 87% | 99% |
| Cc1ccc2c(c1)c1c(n2CC2(c3ccc(F)cc3)OCCO2)CCN(C)C1 [Compound 3, 5-((2-(4-fluorophenyl)-1,3-dioxolan-2-yl)methyl)-2,8-dimethyl-2,3,4,5-tetrahydro-1H-pyrido[4,3-b]indole] | 92% | 106% | 86% | 99% |
| CCOC(=O)CC(Cn1c2c(c3cc(C)ccc31)CN(C)CC2)c1ccc(F)cc1 (stereo not drawn) [Compound 6, ethyl 4-(2,8-dimethyl-3,4-dihydro-1H-pyrido[4,3-b]indol-5(2H)-yl)-3-(4-fluorophenyl)butanoate] | 95% | 95% |  | 95% |
